# Results published in patent US10849988B2, “Hydrogel for engineered immune response to D-chirality peptides” (THE REGENTS OF THE UNIVERSITY OF CALIFORNIA, priority 2016, dated 2020).
# Where no end group is shown, it is not given here. [ ]: non-standard residue; d: D form.
# Test system: macrophages
# Test: In vitro macrophage assay, mRNA production of key markers of inflammation
# Type: cell-based
# Description: FIGS. 6A-6I show data from comparative studies on D and L peptides. […] Note: in 1:1 L/D samples the L gels are unlabeled. FIG. 6B) Quantification of CD11b positive cells (immune cells) within and around gel within a healed dermal wound bed at Day 21 (ex. FIG. 6A). FIG. 6C) Comparing cell recruitment into subcutaneously-injected gels as a function of adaptive immune competence (Balb/c) versus adaptive immune incompetence (Rag2gc−/−). FIG. 6D) Fraction of immune cell to total cell recruitment within a subcutaneously injected gels as a function of adaptive immune competence (Balb/c) versus adaptive immune incompetence (Rag2gc−/−). FIGS. 6E-I) mRNA production of key markers of inflammation within an in vitro macrophage assay upon exposure to DI water, Lipid Polysaccharide (LPS) 500 ug/mL, D-MMP crosslinker 500 ug/mL, and LPS+D-MMP.
substance,measurement,setting,value
Gly Cys Arg Asp Gly Pro d-Gln Gly d-Ile d-Trp Gly Gln Asp Arg Cys Gly (GCRDGP[dQ]G[dI][dW]GQDRCG; cysteine pairing not given here) [D-MMP],effect on macrophages (mRNA of key markers of inflammation) relative to the positive control (LPS),D-MMP crosslinker 500 ug/mL alone,no direct effect
same,effect on macrophages (mRNA of key markers of inflammation) when combined with the positive control (LPS),"LPS+D-MMP, each 500 ug/mL",some additive affects
